Calls of active or inactive are those of the source.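 How the source made its calls: active means phosphorylated Mpk1, a fungal stress kinase, cut by at least 20% below its untreated level on western blot; inactive means the rest.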

This assay concerns Mitogen-activated protein kinase MPK1 phosphorylation (Cryptococcus neoformans H99). Description: reduced phospho-Mpk1 levels in Cryptococcus cells – cell-based, single point, dry powder, imaging, mechanism study for C. neoformans antifungal project (AID 743392). The conditions noted are these: C. neoformans H99, pMpk1 Western blot, 2 h; stronger effect = higher value; concentration not given here. A general note: A western blot detects proteins with antibodies after separation by electrophoresis.
As for `Cc1cccc(OCCn2c(=S)[nH]c3c(F)cccc32)c1`, the inhibition is 4% (inactive).
For `CC(C)c1ccc(OCCn2c(=S)[nH]c3ccccc32)cc1` the value was 62%; for `Fc1cccc(OCCn2c(=S)[nH]c3ccccc32)c1`, 52%; for `S=c1[nH]c2ccccc2n1CCOc1ccccc1Cl`, 56%.
For `Cc1ccc(C(C)C)c(OCCn2c(=S)[nH]c3ccccc32)c1` the value was 53%.

By inhibition is commonly meant the percentage by which the read-out fell short of the control.

The record behind these values is PubChem BioAssay AID743392 (Broad Institute, 2014).
